Laboratory results published in ChEMBL document CHEMBL5126523, “Recent advances in DDR (DNA damage response) inhibitors for cancer therapy” (Eur J Med Chem, 2022).
Values belong to the molecule of their own block, whether it stands above or below them.

Key:
[1] = system: HCT-116; experiment: Inhibition of cell proliferation in human HCT-116 cells incubated for 72 hrs by SRB assay; type: functional, cell-based; conditions: HCT-116, 72 h
[2] = system: MDA-MB-231; experiment: Inhibition of cell proliferation in human MDA-MB-231 cells incubated for 72 hrs by SRB assay; type: functional, cell-based; conditions: MDA-MB-231, 72 h
[3] = system: HCC1937; experiment: Inhibition of cell proliferation in human HCC1937 cells incubated for 72 hrs by SRB assay; type: functional, cell-based; conditions: HCC1937, 72 h
[4] = target: T1, DNA-dependent protein kinase catalytic subunit (Homo sapiens, UniProt P78527); experiment: Inhibition of DNA-PK (unknown origin) incubated for 3 hrs by ADP-Glo kinase assay
[5] = system: NCI-H1299; experiment: Inhibition of cell proliferation in human NCI-H1299 cells incubated for 3 days by MTT assay; type: functional, cell-based; conditions: NCI-H1299, 72 h
[6] = target: T1, DNA-dependent protein kinase catalytic subunit; experiment: Inhibition of DNA-PK (unknown origin) assessed as inhibition constant using Glu-Pro-Pro-Leu-Ser-Gln-Glu-Ala-Phe-Ala-Asp-Leu-Trp-Lys-Lys-Lys peptide as substrate incubated for 45 mins in presence of [33P]-ATP by scintillation counting method
[7] = Cmax in ICR mouse at 10 mg/kg, po measured for 5 to 1440 mins; type: ADME, organism-based; parameters: time upper 1440 min, dose 10 mg/kg, time lower 5 min, route po; conditions: in vivo
[8] = Cmax in ICR mouse at 3 mg/kg, iv measured for 2 to 1440 mins; type: ADME, organism-based; parameters: time upper 1440 min, dose 3 mg/kg, time lower 2 min, route iv; conditions: in vivo
[9] = AUC (0 to last) in ICR mouse at 10 mg/kg, po measured for 5 to 1440 mins; type: ADME, organism-based; parameters: time 5-1440 min, dose 10 mg/kg, route po; conditions: in vivo
[10] = Oral bioavailability in ICR mouse at 10 mg/kg measured for 5 to 1440 mins; type: ADME, organism-based; conditions: in vivo, time 5-1440 min
[11] = Half life in ICR mouse at 10 mg/kg, po measured for 5 to 1440 mins; type: ADME, organism-based; conditions: in vivo, time 5-1440 min
[12] = Half life in ICR mouse at 3 mg/kg, iv measured for 2 to 1440 mins; type: ADME, organism-based; conditions: in vivo, time 2-1440 min
[13] = Tmax in ICR mouse at 10 mg/kg, po measured for 5 to 1440 mins; type: ADME, organism-based; conditions: in vivo, time 5-1440 min
[14] = Tmax in ICR mouse at 3 mg/kg, iv measured for 2 to 1440 mins; type: ADME, organism-based; conditions: in vivo, time 2-1440 min
[15] = AUC (0 to last) in ICR mouse at 3 mg/kg, iv measured for 2 to 1440 mins; type: ADME, organism-based; parameters: time 2-1440 min, dose 3 mg/kg, route iv; conditions: in vivo
[16] = target: Wee1-like protein kinase (Homo sapiens, UniProt P30291); experiment: Inhibition of N-terminal GST-tagged wild-type WEE1 (215 to 646 residues) (unknown origin) expressed in Sf21 insect cells incubated for 60 mins in presence of ATP by ELISA
Wee1-like protein kinase, sequence (P30291 whole entry, the tested form may be a part): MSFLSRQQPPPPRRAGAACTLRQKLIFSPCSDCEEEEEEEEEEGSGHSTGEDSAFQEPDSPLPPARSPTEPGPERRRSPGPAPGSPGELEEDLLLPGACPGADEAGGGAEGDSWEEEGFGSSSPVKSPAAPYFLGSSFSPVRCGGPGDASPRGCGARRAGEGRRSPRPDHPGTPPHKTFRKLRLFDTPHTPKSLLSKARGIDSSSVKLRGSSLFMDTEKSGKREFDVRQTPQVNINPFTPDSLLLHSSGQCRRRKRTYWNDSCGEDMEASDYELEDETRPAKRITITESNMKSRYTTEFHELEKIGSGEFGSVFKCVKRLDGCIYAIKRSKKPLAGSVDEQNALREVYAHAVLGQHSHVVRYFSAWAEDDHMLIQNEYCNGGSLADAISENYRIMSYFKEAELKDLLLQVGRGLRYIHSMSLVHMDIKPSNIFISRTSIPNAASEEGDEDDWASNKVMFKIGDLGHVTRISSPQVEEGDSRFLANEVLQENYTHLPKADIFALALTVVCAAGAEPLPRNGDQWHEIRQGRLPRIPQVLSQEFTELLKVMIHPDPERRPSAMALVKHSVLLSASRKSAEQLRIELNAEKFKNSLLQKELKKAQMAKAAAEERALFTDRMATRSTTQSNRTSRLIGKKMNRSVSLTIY

[17] = system: DU-145; experiment: Inhibition of cell proliferation in human DU-145 cells incubated for 4 days by MTT assay; type: functional, cell-based; conditions: DU-145, 96 h
[18] = target: T2, ATR/ATRIP (Homo sapiens, UniProt Q13535); experiment: Inhibition of full-length human recombinant FLAG-tagged ATR/c-Myc-tagged ATRIP using p53 as substrate incubated for 30 mins in presence of ATP by fluorescence based assay; type: protein-complex assay
T2 sequence (Q13535 whole entry): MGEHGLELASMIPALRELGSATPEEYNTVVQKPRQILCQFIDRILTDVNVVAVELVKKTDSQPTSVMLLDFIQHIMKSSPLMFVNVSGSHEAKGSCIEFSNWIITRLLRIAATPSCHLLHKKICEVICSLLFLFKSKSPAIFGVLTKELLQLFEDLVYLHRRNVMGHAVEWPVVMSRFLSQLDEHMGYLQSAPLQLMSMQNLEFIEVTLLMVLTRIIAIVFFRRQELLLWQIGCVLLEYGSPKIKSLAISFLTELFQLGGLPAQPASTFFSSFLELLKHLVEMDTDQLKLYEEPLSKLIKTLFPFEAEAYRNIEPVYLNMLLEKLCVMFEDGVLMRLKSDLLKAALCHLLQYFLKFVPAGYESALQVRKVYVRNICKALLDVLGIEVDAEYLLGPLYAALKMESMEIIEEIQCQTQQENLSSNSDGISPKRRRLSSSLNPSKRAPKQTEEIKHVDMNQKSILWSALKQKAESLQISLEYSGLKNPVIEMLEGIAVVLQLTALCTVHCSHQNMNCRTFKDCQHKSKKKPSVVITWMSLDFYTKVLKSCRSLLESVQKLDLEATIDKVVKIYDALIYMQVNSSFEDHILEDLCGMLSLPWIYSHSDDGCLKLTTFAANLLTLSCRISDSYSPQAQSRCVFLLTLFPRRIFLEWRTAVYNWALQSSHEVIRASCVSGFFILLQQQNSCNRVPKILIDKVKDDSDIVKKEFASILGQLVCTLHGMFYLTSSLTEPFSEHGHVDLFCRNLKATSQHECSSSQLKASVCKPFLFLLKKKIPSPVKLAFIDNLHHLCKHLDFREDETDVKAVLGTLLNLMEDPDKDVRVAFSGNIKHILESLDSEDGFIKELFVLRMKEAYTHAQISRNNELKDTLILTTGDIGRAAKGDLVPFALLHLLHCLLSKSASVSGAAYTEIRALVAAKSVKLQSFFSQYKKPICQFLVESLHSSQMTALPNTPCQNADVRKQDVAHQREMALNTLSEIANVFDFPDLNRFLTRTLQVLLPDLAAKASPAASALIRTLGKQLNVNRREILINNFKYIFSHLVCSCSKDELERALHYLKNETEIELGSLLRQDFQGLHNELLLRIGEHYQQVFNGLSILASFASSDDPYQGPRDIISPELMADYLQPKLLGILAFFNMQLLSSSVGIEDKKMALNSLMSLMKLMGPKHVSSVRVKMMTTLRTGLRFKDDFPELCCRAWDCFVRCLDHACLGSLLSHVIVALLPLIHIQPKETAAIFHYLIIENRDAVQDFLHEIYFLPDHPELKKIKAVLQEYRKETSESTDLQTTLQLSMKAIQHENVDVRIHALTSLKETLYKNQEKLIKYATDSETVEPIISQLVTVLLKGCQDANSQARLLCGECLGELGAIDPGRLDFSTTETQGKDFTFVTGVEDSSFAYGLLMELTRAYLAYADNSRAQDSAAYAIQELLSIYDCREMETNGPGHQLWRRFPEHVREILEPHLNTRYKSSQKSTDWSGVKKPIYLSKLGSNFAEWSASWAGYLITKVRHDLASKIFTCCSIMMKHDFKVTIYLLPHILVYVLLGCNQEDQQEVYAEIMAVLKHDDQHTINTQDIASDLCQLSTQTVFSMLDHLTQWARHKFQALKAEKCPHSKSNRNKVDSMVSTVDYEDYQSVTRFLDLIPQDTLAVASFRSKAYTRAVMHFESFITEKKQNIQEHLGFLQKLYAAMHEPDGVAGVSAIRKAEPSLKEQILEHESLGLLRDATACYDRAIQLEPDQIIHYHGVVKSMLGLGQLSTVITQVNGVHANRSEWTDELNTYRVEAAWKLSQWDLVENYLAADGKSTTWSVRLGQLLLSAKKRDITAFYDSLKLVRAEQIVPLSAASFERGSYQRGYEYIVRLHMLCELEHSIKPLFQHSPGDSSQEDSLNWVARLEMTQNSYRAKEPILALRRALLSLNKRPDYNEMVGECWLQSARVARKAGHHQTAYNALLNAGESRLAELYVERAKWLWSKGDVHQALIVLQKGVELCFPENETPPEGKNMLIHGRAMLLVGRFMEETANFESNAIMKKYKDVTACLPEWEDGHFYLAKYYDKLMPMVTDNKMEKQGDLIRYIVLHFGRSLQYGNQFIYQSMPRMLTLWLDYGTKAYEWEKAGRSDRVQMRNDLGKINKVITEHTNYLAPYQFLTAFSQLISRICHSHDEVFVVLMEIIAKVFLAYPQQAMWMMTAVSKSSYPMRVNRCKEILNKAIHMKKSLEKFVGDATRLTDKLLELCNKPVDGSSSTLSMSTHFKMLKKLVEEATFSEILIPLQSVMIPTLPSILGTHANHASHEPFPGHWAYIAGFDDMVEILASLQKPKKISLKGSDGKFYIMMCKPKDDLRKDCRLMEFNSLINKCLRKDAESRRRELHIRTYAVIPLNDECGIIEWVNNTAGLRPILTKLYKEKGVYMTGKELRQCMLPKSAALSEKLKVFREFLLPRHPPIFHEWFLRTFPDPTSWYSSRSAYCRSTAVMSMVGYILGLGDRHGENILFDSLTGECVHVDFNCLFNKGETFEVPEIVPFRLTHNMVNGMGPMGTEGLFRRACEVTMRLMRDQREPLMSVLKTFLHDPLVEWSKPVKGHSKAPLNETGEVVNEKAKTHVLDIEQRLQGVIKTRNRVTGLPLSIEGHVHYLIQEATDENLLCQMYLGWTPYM
T2 sequence (Q8WXE1 whole entry, further chain): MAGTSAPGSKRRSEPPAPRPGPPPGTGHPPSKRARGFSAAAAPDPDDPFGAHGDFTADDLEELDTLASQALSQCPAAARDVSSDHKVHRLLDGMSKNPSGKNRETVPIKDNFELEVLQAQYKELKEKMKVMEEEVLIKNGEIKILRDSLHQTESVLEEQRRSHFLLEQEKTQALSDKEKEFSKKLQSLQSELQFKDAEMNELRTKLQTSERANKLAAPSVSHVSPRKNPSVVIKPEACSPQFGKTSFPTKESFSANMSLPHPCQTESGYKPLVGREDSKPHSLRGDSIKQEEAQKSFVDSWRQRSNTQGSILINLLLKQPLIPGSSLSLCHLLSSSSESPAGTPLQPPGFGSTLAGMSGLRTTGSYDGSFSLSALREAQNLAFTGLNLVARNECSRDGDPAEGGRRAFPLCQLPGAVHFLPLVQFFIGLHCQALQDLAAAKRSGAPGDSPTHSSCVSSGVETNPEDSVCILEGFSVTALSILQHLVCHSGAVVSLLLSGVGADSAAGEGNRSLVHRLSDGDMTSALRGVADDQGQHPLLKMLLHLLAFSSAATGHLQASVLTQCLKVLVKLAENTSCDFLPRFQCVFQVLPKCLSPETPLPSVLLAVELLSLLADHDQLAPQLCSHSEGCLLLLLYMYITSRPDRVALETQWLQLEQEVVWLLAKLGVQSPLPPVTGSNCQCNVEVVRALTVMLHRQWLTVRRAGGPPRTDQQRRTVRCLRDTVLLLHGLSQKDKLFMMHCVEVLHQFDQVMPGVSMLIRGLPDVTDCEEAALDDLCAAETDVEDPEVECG

[19] = system: NCI-H460; experiment: Inhibition of cell proliferation in human NCI-H460 cells incubated for 4 days by MTT assay; type: functional, cell-based; conditions: NCI-H460, 96 h
[20] = target: Phosphatidylinositol 4,5-bisphosphate 3-kinase catalytic subunit alpha isoform (Homo sapiens, UniProt P42336); experiment: Inhibition of PI3K-alpha (unknown origin) incubated for 40 mins in presence of ATP by ELISA
Phosphatidylinositol 4,5-bisphosphate 3-kinase catalytic subunit alpha isoform, sequence (P42336 whole entry, canonical isoform): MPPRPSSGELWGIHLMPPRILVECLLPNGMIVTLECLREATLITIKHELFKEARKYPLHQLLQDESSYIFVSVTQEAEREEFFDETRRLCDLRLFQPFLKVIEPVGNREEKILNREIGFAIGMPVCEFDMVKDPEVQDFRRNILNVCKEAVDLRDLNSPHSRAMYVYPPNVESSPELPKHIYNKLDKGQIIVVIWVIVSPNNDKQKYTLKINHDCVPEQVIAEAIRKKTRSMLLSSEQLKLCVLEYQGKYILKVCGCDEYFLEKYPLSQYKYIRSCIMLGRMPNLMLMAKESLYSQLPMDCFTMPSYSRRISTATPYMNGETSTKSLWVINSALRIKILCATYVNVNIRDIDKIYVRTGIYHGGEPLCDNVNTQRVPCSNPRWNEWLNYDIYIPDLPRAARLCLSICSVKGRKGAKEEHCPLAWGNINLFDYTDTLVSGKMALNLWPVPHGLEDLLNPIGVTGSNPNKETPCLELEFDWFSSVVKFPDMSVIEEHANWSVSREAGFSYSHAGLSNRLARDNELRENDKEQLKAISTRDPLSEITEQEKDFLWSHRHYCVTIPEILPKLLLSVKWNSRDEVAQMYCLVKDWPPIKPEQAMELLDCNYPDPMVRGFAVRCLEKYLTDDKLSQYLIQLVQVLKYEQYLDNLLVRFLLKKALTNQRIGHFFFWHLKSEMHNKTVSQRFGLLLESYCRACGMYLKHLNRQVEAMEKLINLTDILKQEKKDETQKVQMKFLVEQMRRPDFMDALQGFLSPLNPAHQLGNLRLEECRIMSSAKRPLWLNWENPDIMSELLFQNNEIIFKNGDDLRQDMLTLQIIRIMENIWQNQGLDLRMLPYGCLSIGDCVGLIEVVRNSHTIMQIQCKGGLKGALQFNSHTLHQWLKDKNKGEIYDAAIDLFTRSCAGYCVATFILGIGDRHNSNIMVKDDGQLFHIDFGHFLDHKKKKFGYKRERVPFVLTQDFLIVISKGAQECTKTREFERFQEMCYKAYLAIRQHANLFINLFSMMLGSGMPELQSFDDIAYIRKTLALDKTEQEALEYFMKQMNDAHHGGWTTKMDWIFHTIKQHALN

[21] = target: T3, Poly [ADP-ribose] polymerase 1 (Homo sapiens, UniProt P09874); experiment: Inhibition of PARP1 (unknown origin) incubated for 1 hr by chemiluminescence assay
[22] = target: Poly [ADP-ribose] polymerase tankyrase-2 (Homo sapiens, UniProt Q9H2K2); experiment: Inhibition of tankyrase 2 (unknown origin) incubated for 1 hr by chemiluminescence based assay
[23] = target: Poly [ADP-ribose] polymerase tankyrase-1 (Homo sapiens, UniProt O95271); experiment: Inhibition of tankyrase 1 (unknown origin) incubated for 1 hr by chemiluminescence assay
[24] = target: T3, Poly [ADP-ribose] polymerase 1; experiment: Inhibition of PARP1 (unknown origin) by ELISA
[25] = target: T3, Poly [ADP-ribose] polymerase 1; experiment: Inhibition of N-terminal GST-tagged recombinant human PARP1 (2 to 1014 residues) expressed in Sf9 insect cells incubated for 1 hr by colorimetric assay
[26] = system: LoVo; experiment: Inhibition of cell growth in human LoVo cells assessed as measuring ATP content incubated for 3 days by Cell Titer Glo assay; type: functional, cell-based; conditions: 72 h
[27] = target: T2, ATR/ATRIP; experiment: Inhibition of human FLAG-tagged ATR/c-Myc-tagged ATRIP expressed in mammalian expression system using p53 as substrate incubated for 2 hrs by fluorescence based assay
[28] = system: HCT-116; experiment: Inhibition of cell proliferation in human HCT-116 incubated for 48 hrs by Cell Titer Glo assay; type: functional, cell-based; conditions: HCT-116, 48 h
[29] = target: T2, ATR/ATRIP; experiment: Inhibition of full-length recombinant human ATR/ATRIP using p53 as substrate incubated for 30 mins in presence of ATP by HTRF assay; type: protein-complex assay
[30] = system: NCI-H23; experiment: Inhibition of cell proliferation in human NCI-H23 incubated for 48 hrs by Cell Titer Glo assay; type: functional, cell-based; conditions: NCI-H23, 48 h

IC50 [1]: 193 nM
IC50 [2]: 3410 nM
IC50 [3]: 166 nM
Structure (SMILES): NC(=O)c1cccc2cc(C(=O)N3CCN(c4nc(-c5cnc(N)cc5C(F)(F)F)nc(N5CCOCC5)n4)CC3)oc12

IC50 [4]: 39 nM
Structure (SMILES): Cc1ncc(-c2cc(NC[C@@H](C)c3cccc4c(-c5noc(=O)[nH]5)ccnc34)ncn2)cn1

IC50 [5]: 284 nM
Structure (SMILES): C=CCn1c(=O)c2cnc(Nc3ccc(N4CCN(C)CC4)cc3)nc2n1-c1cccc(C(C)(C)O)n1 [ADAVOSERTIB]

Ki [6]: < 100 nM
Structure (SMILES): O=c1[nH]c(N[C@H]2CC[C@@H](Oc3cc(N4CCOCC4)cc4nccnc34)CC2)ncc1F

Cmax [7]: 266 nM
Cmax [8]: 430 nM
AUC(0-t) [9]: 326 ng·h/mL
bioavailability [10]: 63.7%
half-life [11]: 57 min
half-life [12]: 43.8 min
Tmax [13]: 55.2 min
Tmax [14]: 1.8 min
AUC(0-t) [15]: 153 ng·h/mL
IC50 [16]: 3.12 nM
Structure (SMILES): C=CCn1c(=O)c2cnc(Nc3ccc(N4C[C@H]5CN(CC6CC6)C[C@H]5C4)cc3)nc2n1-c1ccc(C(C)(C)O)cn1

IC50 [17]: 1220 nM
IC50 [18]: 938 nM
IC50 [19]: 907 nM
Structure (SMILES): C[C@@H]1COCCN1c1cc(-c2ccnn2C)c2ncc(-c3ccn[nH]3)n2n1

IC50 [1]: 342 nM
IC50 [20]: 81.7 nM
IC50 [2]: 3290 nM
IC50 [3]: 264 nM
Structure (SMILES): Nc1cc(C(F)(F)F)c(-c2nc(N3CCOCC3)nc(N3CCN(C(=O)c4cc(Cc5n[nH]c(=O)c6ccccc56)ccc4F)CC3)n2)cn1

IC50 [21]: 0.25 nM
IC50 [22]: 4.15 nM
IC50 [23]: 13.5 nM
Structure (SMILES): COc1ccc(NC(=O)c2ccc(NC(=O)N3CCN(C(=O)c4cc(Cc5n[nH]c(=O)c6ccccc56)ccc4F)CC3)cc2)cc1

IC50 [24]: < 200 nM
Structure (SMILES): CC(C)(C)CC(=O)C(=O)N1CCN(C(=O)c2cc(Cc3n[nH]c(=O)c4c3CCCC4)ccc2F)CC1

IC50 [1]: 94 nM
IC50 [21]: 6.3 nM
IC50 [20]: 5.8 nM
IC50 [2]: 4120 nM
IC50 [3]: 61 nM
Structure (SMILES): NC(=O)c1cccc2cc(C(=O)N3CCN(c4nc(-c5cnc(N)nc5)nc(N5CCOCC5)n4)CC3)oc12

IC50 [25]: < 100 nM
Structure (SMILES): NC(=O)c1cccc2cn(-c3ccc([C@@]4(F)CCCNC4)cc3)nc12

IC50 [1]: 211 nM
IC50 [2]: 443 nM
IC50 [3]: 81 nM
Structure (SMILES): Nc1ncc(-c2nc3c(c(N4CCOCC4)n2)CCN(C(=O)c2cc(Cc4n[nH]c(=O)c5ccccc45)ccc2F)C3)cn1

IC50 [26]: 456 nM
IC50 [27]: 10 nM
Structure (SMILES): C[C@@H]1COC[C@H]2COc3c(nc(-c4ccnc5[nH]ccc45)nc3C3(C#N)CC3)N21

IC50 [4]: 122 nM
Structure (SMILES): Cc1ncc(-c2cc(NC[C@H](C)c3cccc4c(C5=NCCN5)ccnc34)ncn2)cn1

IC50 [1]: 775 nM
IC50 [2]: 155 nM
IC50 [3]: 504 nM
Structure (SMILES): Nc1cc(C(F)(F)F)c(-c2nc3c(c(N4CCOCC4)n2)CCN(C(=O)c2cc(Cc4n[nH]c(=O)c5ccccc45)ccc2F)C3)cn1

IC50 [28]: < 10 µM
IC50 [29]: < 500 nM
IC50 [30]: < 10 µM
Structure (SMILES): C[C@@H]1COCCN1c1cc(-c2ccnn2C)nc(-n2c(NCCO)nc3ccc(F)cc32)n1

IC50 [4]: 165 nM
Structure (SMILES): COc1ccc(Nc2cc(-c3ncnc4cc(N5CCOCC5)ccc34)c(F)cc2Cl)nn1

IC50 [1]: 1050 nM
IC50 [21]: 0.78 nM
IC50 [20]: 94 nM
IC50 [2]: 1190 nM
IC50 [3]: 426 nM
Structure (SMILES): Nc1ncc(-c2nc(N3CCOCC3)nc(N3CCN(C(=O)c4cc(Cc5n[nH]c(=O)c6ccccc56)ccc4F)CC3)n2)cn1

IC50 [28]: < 10 µM
IC50 [29]: < 500 nM
IC50 [30]: < 10 µM
Structure (SMILES): CNc1nc2ccc(F)cc2n1-c1nc(-c2ccnn2C)cc(N2CCOC[C@H]2C)n1
